Experimental data taken from US20180296537A1, “METHODS AND COMPOSITIONS FOR DIAGNOSING, TREATING, AND MONITORING TREATMENT OF SHANK3 DEFICIENCY ASSOCIATED DISORDERS” (Novartis AG, priority 2015, published 2018).

Legend:
[1] = tested on: Akt; assay: Western blot of Akt phosphorylation in rat primary cortical neurons (Shank3 knock down vs control); format: cell-based; settings: for phosphorylation of Akt T308: 10 μM TG003, 60 minutes, DIV 16
From the text: E18 primary rat cortical neurons were dissected, cultured and infected 6 days after plating (DIV6) with indicated lentiviruses at MOI 10, as previously described (Proenca et al., 2013). Lentiviruses were produced by calcium phosphate transfection of HEK293T cells with packaging plasmids (Life Technologies) and transfer plasmid in 10 cm dishes. Cells were transferred to fresh medium 6 hrs. post-transfection. Four days post-transfection, the cell medium was collected and pooled from several dishes, cleared of cellular debris by 0.45 μm filtration, and concentrated 100× by centrifugation at 19,000 g for 90 min in a Beckman Ultracentrifuge using a SW28/SW32 rotor. Pellets were suspended in PBS/0.5% BSA and viral titer was determined by ELISA quantification of viral p24 antigen (Zeptometrix Corp, USA). For shRNA plasmid generation, oligonucleotides were annealed and ligated into lentiviral transfer plasmid pLKO.1-GFP vector at the AgeI/EcoRI sites. The target sequences of shRNAs that target rat and mouse Shank3 (5′-3′) are: […] […] (SEQ ID NO: 2), and […] (SEQ ID NO: 3). The latter was previously reported (Verpelli et al., 2011). A luciferase-targeting sequence was used as an shRNA control: […] (SEQ ID NO: 4).
For immunoprecipitation (IP) of HA-tagged Akt, neurons were lysed in IP buffer (20 mM Tris-HCl pH 7.4, 3 mM EDTA, 3 mM EGTA, 150 mM NaCl, 0.5% NP-40, and protease/phosphatase inhibitor cocktails (Roche)). Lysates were cleared by centrifugation at 13,000 rpm for 10 min and lysates normalized for protein abundance were immunoprecipitated with rabbit HA-tag antibody for 1 h at 4° C. Immuno-complexes were then captured by incubation for an additional 1 hr with Protein A agarose beads (Roche). Beads were washed three times with IP buffer and bound proteins were eluted with 2×SDS-PAGE sample buffer, then boiled for 5 min. For IP and analysis of ubiquitinated Myc-Clk2, neurons were lysed in Ubiquitin IP buffer (20 mM Tris-HCl pH 7.4, 3 mM EDTA, 3 mM EGTA, 150 mM NaCl, 1% Triton X-100, protease/phosphatase inhibitor cocktails (Roche), 5 mM N-ethylmaleimide, and 3 mM iodoacetamide) containing 1% SDS. Lysates were boiled for 20 min to denature proteins and then centrifuged for 10 min at 13,000 rpm. Lysates were subsequently diluted to 0.1% SDS with Ubiquitin IP buffer and immunoprecipitated with Myc antibody for 1 h. Complexes were then captured by addition of Protein G agarose (Roche) and additional 1 h incubation. Beads were washed 3× and eluted with 2×SDS-PAGE sample buffer, then boiled for 5 min. Samples prepared for SDS-PAGE were then resolved on 4-12% Novex gels (Life Technologies), transferred to PVDF membranes, blocked in 5% low-fat milk in TBS/0.1% Tween-20, and incubated overnight with primary antibodies. After washing and 1 h incubation with secondary antibodies, proteins were visualized by Chemiluminescent detection (Amersham-GE Healthcare Life Sciences).
To determine whether Shank3 deficiency impacts the PI3K-Akt-mTOR signaling pathway (FIG. 1A, gray highlight), lentiviral-mediated delivery of shRNAs was used to knock-down Shank3 in rat primary cortical neuron cultures. Cultured rat primary cortical neurons were transduced with lentiviruses encoding control shRNA or Shank3-shRNA at six days in vitro (DIV 6) and treated with BDNF (50 ng/ml) for 15 or 30 min at 14-16 days in vitro (DIV 14-16). Cell lysates were prepared in RIPA buffer prior to resolution by SDS-PAGE and Western blotting.
Cortical neurons, transduced with shRNA-expressing lentiviruses on DIV 6, were treated with 50 ng/ml BDNF or okadaic acid (100 nM) on DIV 16 and cell lysates were resolved by SDS-PAGE, followed by Western blotting.

[2] = tested on: rpS6; assay: Western blot of rpS6 phosphorylation in Shank3 knock down primary neurons; format: cell-based, rat
From the text: E18 primary rat cortical neurons were dissected, cultured and infected 6 days after plating (DIV6) with indicated lentiviruses at MOI 10, as previously described (Proenca et al., 2013). Lentiviruses were produced by calcium phosphate transfection of HEK293T cells with packaging plasmids (Life Technologies) and transfer plasmid in 10 cm dishes. Cells were transferred to fresh medium 6 hrs. post-transfection. Four days post-transfection, the cell medium was collected and pooled from several dishes, cleared of cellular debris by 0.45 μm filtration, and concentrated 100× by centrifugation at 19,000 g for 90 min in a Beckman Ultracentrifuge using a SW28/SW32 rotor. Pellets were suspended in PBS/0.5% BSA and viral titer was determined by ELISA quantification of viral p24 antigen (Zeptometrix Corp, USA). For shRNA plasmid generation, oligonucleotides were annealed and ligated into lentiviral transfer plasmid pLKO.1-GFP vector at the AgeI/EcoRI sites. The target sequences of shRNAs that target rat and mouse Shank3 (5′-3′) are: […] (SEQ ID NO: 1), […] (SEQ ID NO: 2), and […] (SEQ ID NO: 3). The latter was previously reported (Verpelli et al., 2011). A luciferase-targeting sequence was used as an shRNA control: […] (SEQ ID NO: 4). […]

[3] = Shank3 knock down primary neurons, SC79 treatment

| SMILES | Akt phosphorylation [1, 3] | rpS6 phosphorylation [2, 3] | phosphorylation of Akt T308 ([1]; Shank3 knock down neurons) | phosphorylation of Akt T308 ([1]; control neurons) | rpS6 phosphorylation ([2]; Shank3 knock-down (shShank3) neurons, TG003 (FIG. 3F)) |
| --- | --- | --- | --- | --- | --- |
| CCOC(=O)C1=C(N)Oc2ccc(Cl)cc2C1C(C#N)C(=O)OCC (centres unmarked) [SC79] | restored Akt and rpS6 phosphorylation | restored Akt and rpS6 phosphorylation | – | – | – |
| CCN1/C(=C/C(C)=O)Sc2ccc(OC)cc21 [TG003, (Z)-1-(3-ethyl-5-methoxy-2,3-dihydrobenzothiazol-2-ylidene)propan-2-one] | – | – | restored to control levels in Shank3 knock down neurons | refractory to TG003 | restores Akt and rpS6 phosphorylation |
